The structures appear in SMILES notation. pIC50: −log10 of the molar value.

Experiment [1] concerns WT Arabidopsis seedlings. Briefly: Root growth of WT Arabidopsis seedlings in the presence of NPA (Experiment 7). Type of experiment: in vivo, A. thaliana. The conditions noted are these: NPA even at low concentrations (0.5 μM). Here is the method:
(§1) Arabidopsis Columbia-0 wild type (WT) was used for assessing the effect of TAA on root growth and its effects on the expression of auxin-responsive genes. Seeds of A. thaliana were surface sterilized by suspending in 70% ethanol for 1 minute, followed by treatment with 10% bleach for 20 minutes. After thorough washing with sterile distilled water, the sterilized seeds were plated onto germination medium (half-strength Murashige and Skoog basal medium with vitamins (1/2 MS) medium supplemented with 1% sucrose and 0.7% plant agar) for germination. Germination was initiated by incubating the seeds in darkness at 5° C. for 2 days, followed by transfer to a light environment at 22° C. with a photoperiod of 16-h light/8-h dark for further growth. Stock solutions of TAA were prepared in DMSO (dimethyl sulfoxide). In control treatments, DMSO was used in equal amounts as present in the greatest concentration of TAA tested.
To analyze the effect of TAA on root growth in the presence of NPA (N-1-naphthylphthalamic acid), WT Arabidopsis seedlings were germinated as described and uniform-looking 8-day-old seedlings were transferred to germination medium supplemented with different concentrations of TAA (5 and 10 μM) and different concentrations of NPA (0, 0.5, 1, 2, 4, and 8 μM). The seedlings were allowed to grow for 6 days and the plates were photographed at 24 h intervals. […]

Experiment [2] relates to tobacco leaf explants. In words: Shoot organogenesis from tobacco leaf explants in vitro (Experiment 4). Type of experiment: cell-based, Nicotiana tabacum L. cv. Petit Havana SRI. The conditions noted are these: 8 weeks.
Experiment [3] deals with tomato cotyledon explants. In words: Shoot regeneration from tomato cotyledon explants with 1 mg/L BAP (Experiment 3). Type of experiment: cell-based, tomato cultivar Roma VF. The source says:
The sterilized seeds were germinated on half-strength Murashige and Skoog (MS) medium in vitro. Cotyledons from 10-day old seedlings before first true leaves emerged were used as starting explants in all the experiments. The base and tip of the cotyledons were excised and the explants were transferred with the abaxial surface in contact with the culture medium. The basic culture medium consists of MS medium with vitamins supplemented with 30 g/L sucrose and gelled with 0.8% agar, and the pH of the medium was adjusted to 5.8±0.2. […] All experiments were conducted with at least three replicates of 10 explants each.
To analyse the effects on shoot regeneration, the basic media was supplemented with 1 mg/L BAP and different concentrations of TAA, IAA, NAA, IBA and 2,4 D (0.05, 0.1, 0.5, 1.0 and 2.0 mg/L) individually. Since there are no previous reports on suitable concentration ranges for TAA in tomato regeneration, concentrations at 50.0, 100.0, 200.0 and 300.0 mg/L were analysed additionally for TAA.

Experiment [4] concerns WT Arabidopsis seedlings. Briefly: Root growth of WT Arabidopsis seedlings (Experiment 6). To be noted: Arabidopsis thaliana, 144 h; 6 days growth, 8-day-old seedlings; read-out: concentration that reduced the primary root length to 50% of control. Type of experiment: in vivo, A. thaliana. Here is the method: as §1
To analyze the effect of TAA on root growth, WT Arabidopsis seedlings were germinated as described and uniform-looking 8-day-old seedlings were transferred to germination medium supplemented with different concentrations of TAA (0.1, 1, 2, 5, 10, 25, 50, and 100 μM) or NAA/IAA/IBA (0.05, 0.1, 1, 2 and 5 μM). For IBA, two additional concentrations (10 and 25 μM) were also analyzed. Seedlings grown on media supplemented with an equal volume of DMSO were used as control. The seedlings were allowed to grow for 6 days and the plates were photographed at 24 h intervals. Primary root length was measured using Image J software. The difference in the number of lateral roots (LR) and root hairs was visually observed. Microscopic images were taken on a Leica Thunder Imager System (Leica Microsystems Ltd., Switzerland) and the images were processed with LAS X software.

Experiment [5] has as its system tomato cotyledon explants. In words: Root regeneration from tomato cotyledon explants in vitro (Experiment 2). Type of experiment: cell-based, tomato cultivar Roma VF. The conditions noted are these: 0.05 and 0.1 mg/L, no other hormones; for organogenesis from tomato cotyledon explants (root formation): within 7 days. Here is the method: Seeds of tomato cultivar Roma VF were sterilized by treating with 75% ethanol for 30 seconds at room temperature and washed with sterile water for five times. The seeds were then treated with 15% sodium hypochlorite for 10 minutes and washed five times in sterile water. The sterilized seeds were germinated on half-strength Murashige and Skoog (MS) medium in vitro. Cotyledons from 10-day old seedlings before first true leaves emerged were used as starting explants in all the experiments. The base and tip of the cotyledons were excised and the explants were transferred with the abaxial surface in contact with the culture medium. The basic culture medium consists of MS medium with vitamins supplemented with 30 g/L sucrose and gelled with 0.8% agar, and the pH of the medium was adjusted to 5.8±0.2. Plates were maintained at a light cycle of 16/8 hours day/night, temperature of 26/24° C. day/night, and relative humidity of 70% and subcultured on the same media after 14 days. Observations were made on 7, 14, 21 and 28 days of growth. All experiments were conducted with at least three replicates of 10 explants each.
In order to analyze the effect of TAA on root regeneration, the basic media were supplemented with different concentrations of TAA (0.05 and 0.1 mg/L) and further compared with individual effect of widely used auxins (IAA, NAA, IBA, 2,4 D) at similar concentrations.

The mark [6] stands for this setting: basic shoot regeneration media: 3% MS media + 2 mg/L kinetin.
Where [7] appears, read: 1 mg/L IAA added to 3% MS + 2 mg/L kinetin.

Turning to `O=C(O)c1ccccc1C(=O)Nc1cccc2ccccc12` [NPA, N-1-naphthylphthalamic acid, reference compound], the “primary root length and number of LR” value in experiment [1] was “reduced primary root length and the number of LR”.

Turning to `c1coc(CNc2ncnc3[nH]cnc23)c1` [kinetin, reference compound], in experiment [2] (setting [6]), the “average number of shoots per explant” value is 3.10 and the “total number of shoots regenerated per plate” value is recorded as 21.7.

For the molecule `O=C(O)CCCc1c[nH]c2ccccc12` [IBA, indole-3-butyric acid], the shoot organogenesis result in experiment [3] (0.05, 0.1 and 0.5 mg/L with 1 mg/L BAP) is “callus and well-defined shoot formation”; in experiment [3] (1.0 and 2.0 mg/L with 1 mg/L BAP), “mostly callus and some root formation”. In addition, in experiment [4], the pIC50 was 5.00. Besides, the “organogenesis from tomato cotyledon explants (root formation)” value (shortened to “organogenesis … (root formation)”) in experiment [5] was “rapid root formation”.

As for `O=C(O)Cc1cccc2ccccc12` [NAA, naphthalene-1-acetic acid], the shoot organogenesis result is recorded as “most explants produced callus, but a few produced shoots” in experiment [3] (0.05 mg/L with 1 mg/L BAP) and “mostly callus by Day 28, but a few of them showed root formation” in experiment [3] (higher concentrations (above 0.05 up to 2.0 mg/L) with 1 mg/L BAP, Day 28). In addition, the pIC50 in experiment [4] was 7.30. In experiment [5], the “organogenesis … (root formation)” value is “rapid root formation”.

Take `O=C(O)Cc1c[nH]c2ccccc12` [IAA, indole-3-acetic acid, reference compound]: in experiment [2] (setting [7]), the “increase of number of shoots regenerated per explant versus basic shoot regeneration media” value is listed as “more than 3 times” and the “increase of total number of shoots regenerated versus basic shoot regeneration media” value is on record as “more than 3 times”. Further, the shoot organogenesis entry in experiment [3] (2 mg/L with 1 mg/L BAP) is “mostly callus and root formation”. Also, the shoot organogenesis entry in experiment [3] (0.05, 0.1, 0.5 and 1.0 mg/L with 1 mg/L BAP) is listed as “better shoot formation than NAA”. The pIC50 in experiment [4] is 7.00. In experiment [5], the “organogenesis … (root formation)” value is “rapid root formation”.

Regarding `O=C(O)COc1ccc(Cl)cc1Cl` [2,4D, 2,4-dichlorophenoxyacetic acid], in experiment [3] (0.05, 0.1, 0.5, 1.0 and 2.0 mg/L with 1 mg/L BAP), the shoot organogenesis result is recorded as “did not show any shoot formation”. Further, the “organogenesis from tomato cotyledon explants” value in experiment [5] (by Day 14) is “formed more callus and few of the explants showed longer roots”. Besides, the “organogenesis … (root formation)” value in experiment [5] was “the explants enlarged in size and started showing signs of callus formation”.

Values taken from patent US20250072423A1, “THIOPHENE ACETIC ACID FOR PLANT GROWTH REGULATION” (priority 2023, published 2025).
